Columns and labels:
stage III ovarian cancer = assay: Ovarian cancer treatment, patient case (Example 10); assay type: in vivo, human; settings: 10 mg/kg daily orally or IV for 48 days
Experimental: A subject presents with recurrent/progressive stage III ovarian cancer refractory to all other treatments. The subject is treated daily with 10 mg/kg of N-(3-methyl-1,1-dioxo-1,4-thiazinan-4-yl)-1-[3-chloro, 5-bromo coumarin-2-carbonyl] orally or IV for 48 days.

breast cancer = assay: Breast cancer prophylaxis, patient case (Example 8); assay type: in vivo, human; settings: 5 mg/kg daily by tablets for 48 months, BRCA 1 and 2 markers
Experimental: A subject presents normally, but has BRCA 1 and 2 markers as well as a family history of breast cancer. The subject is treated daily with 5 mg/kg of N-(3-methyl-1,1-dioxo-1,4-thiazinan-4-yl)-1-[5,6-dimethoxy coumarin-2-yl]methanimine by tablets for 48 months.

Stage IV neuroblastoma = assay: Treatment of neuroblastoma, patient case (Example 5); assay type: in vivo, human
Excerpt: A person presents with Stage IV neuroblastoma. […] Upon examination, tumor mass is found reduced by about 50%.

[1] = system: Stage V Alzheimer's disease; assay: Alzheimer treatment, patient case (second Example 10); assay type: in vivo, human; settings: 5 mg/kg oral daily, chronically, six month period
Experimental: A subject presents with Stage V Alzheimer's disease. The subject is treated daily with 5 mg/kg oral doses of N-(3-methyl-1,1-dioxo-1,4-thiazinan-4-yl)-1-[3,4,5-trimethoxy phenyl sulfonyl], chronically.

[2] = system: Stage IV pancreatic cancer; assay: Treatment of pancreatic cancer, patient case (Example 7); assay type: in vivo, human; settings: 10 mg/kg/day tablets every other day for 30 days (15 doses)
Experimental: A subject presents with Stage IV pancreatic cancer. The subject is treated daily with 10 mg/kg/day of N-(3-methyl-1,1-dioxo-1,4-thiazinan-4-yl)-1-[1-phenyl, 1-acetic acid]methane by tablets every other day for 30 consecutive days (15 doses). Upon examination, cancer involvement is found reduced by about 20%.

end stage liver cancer = assay: Liver cancer treatment, patient case (Example 9); assay type: in vivo, human; settings: 10 mg/kg daily orally or IV for 48 days
Experimental: A subject presents with end stage liver cancer refractory to all other treatments. The subject is treated daily with 10 mg/kg of N-(3-methyl-1,1-dioxo-1,4-thiazinan-4-yl)-1-[1-phenyl, 1-furan-2-yl] orally or IV for 48 days.

Stage IV breast cancer = assay: Treatment of breast cancer, patient case (Example 6); assay type: in vivo, human; settings: 10 mg/kg/day orally or IV daily for 15 consecutive days
Experimental: A subject presents with Stage IV breast cancer and axillary lymph node involvement. The subject is treated with 10 mg/kg/day of N-(3-methyl-1,1-dioxo-1,4-thiazinan-4-yl)-1-[1-phenyl, 1-methanol]methane orally or IV daily for 15 consecutive days. Upon examination, cancer involvement is found reduced by about 20%.

SMSKCNR cells [3] = assay: Reactive oxygen species, carboxylated DCF flow cytometry; assay type: cell-based, human; settings: 90 minutes incubation, vs control
Experimental: RKS-2-62 increases reactive oxygen species in neuroblastoma cells. SMSKCNR cells treated with RKS-2-62 were incubated with carboxyl-DCF. SMSKCNR cells were grown in T25 flasks and incubated in RKS-2-62 for 90 minutes prior to treatment with carboxylated DCF. Cells were collected and analyzed by flow cytometry. […] Control is the left hand peak in grey. RKS-2-62 is the right hand peak. Oxidation of DCF by reactive oxygen species (ROS) causes increased fluorescence, and a lower concentration of RKS-2-62 than of nifurtimox was required to achieve the same effect.

[4] = Chloroform/water partition test; assay type: physicochemical
Experimental: In addition, RKS-2-26 is lipid soluble and likely to cross the blood brain barrier. […] Then 1 mL of distilled water was added and vortexed.

[5] = system: DAOY medulloblastoma cells; assay: Calcein AM cell viability assay, DAOY medulloblastoma cells; assay type: cell-based; settings: 48 hours
Excerpt: (§1) For the D283 cell line, viability after exposure to RKS was decreased compared to nifurtimox (P=0.008), with similar results for the DAOY cell line (P=0.026).

[6] = system: D283 medulloblastoma cells; assay: Calcein AM cell viability assay, D283 medulloblastoma cells; assay type: cell-based; settings: 48 hours
Excerpt: as §1

SMSKCNR cells [7] = assay: Neuroblastoma xenograft mouse model, oral dosing in food pellets; settings: 3 weeks
Experimental: Nude mice were injected subcutaneously in the flank with 10^7 SMSKCNR cells and tumors were allowed to grow for 7 days. Mice were then fed either control food pellets or pellets containing 50, 100, or 150 mg/kg/day of RKS-2-62 for 3 weeks (4 mice per group). Tumors were harvested and weighed.

[8] = system: SMS-KCNR neuroblastoma cells; assay: cells; settings: Homo sapiens, 48 h, read-out: cell viability, mean value
Experimental: SMS-KCNR neuroblastoma cells were incubated for 48 hours with increasing levels of either nifurtimox or RKS-2-62, and cytotoxicity was determined using the Calcein AM cell viability assay. […] SMSKCNR cells were plated in 48 wells plates and treated with 0-20 μg/mL of either RKS-2-62 or nifurtimox for 48 hours. Cell viability was assessed using Calcein AM assay.

Q: For `CC1CS(=O)(=O)CCN1NC(=O)c1c(Cl)c2cc(Br)ccc2oc1=O` (stereo not shown), which “tumor growth upon examination” value (stage III ovarian cancer) is on record?
A: no further tumor growth is noted

Q: For `COc1cc2cc(C=NN3CCS(=O)(=O)CC3C)c(=O)oc2cc1OC` (stereo not shown), which “cancer involvement upon examination” value (breast cancer) is on record?
A: no cancer involvement is found

Q: Which results are given for `CC1CS(=O)(=O)CCN1NC(c1ccccc1)c1ccccc1` (stereo not shown) [N-(3-methyl-1,1-dioxo-1,4-thiazinan-4-yl)-1-[1,1-diphenyl]methane]?
A: tumor response (Stage IV neuroblastoma; 15 mg/kg/day orally or IV for 2 weeks): tumor stabilization; reduction of tumor mass (Stage IV neuroblastoma; with further addition of cyclophosphamide and topotecan, 8 weeks): about 50%

Q: Which “progression of the disease” value [1] does the source give for `COc1cc(S(=O)(=O)NN2CCS(=O)(=O)CC2C)cc(OC)c1OC` (stereo not shown) [N-(3-methyl-1,1-dioxo-1,4-thiazinan-4-yl)-1-[1-(3,4,5-trimethoxyphenylsulfonyl]] here?
A: substantially no progression of the disease is noted

Q: Which “reduction of cancer involvement” value [2] does the source give for `CC1CS(=O)(=O)CCN1NC(CC(=O)O)c1ccccc1` (stereo not shown) [N-(3-methyl-1,1-dioxo-1,4-thiazinan-4-yl)-1-[1-phenyl, 1-acetic acid]methane] here?
A: about 20%

Q: Which “liver cancer involvement upon examination” value (end stage liver cancer) does the source give for `CC1CS(=O)(=O)CCN1N(c1ccccc1)c1ccco1` (stereo not shown) [N-(3-methyl-1,1-dioxo-1,4-thiazinan-4-yl)-1-[1-phenyl, 1-furan-2-yl]] here?
A: no liver cancer involvement is found

Q: With `CC1CS(=O)(=O)CCN1NC(CO)c1ccccc1` (stereo not shown) [N-(3-methyl-1,1-dioxo-1,4-thiazinan-4-yl)-1-[1-phenyl, 1-methanol]methane] as the compound, how does the “reduction of cancer involvement” value (Stage IV breast cancer) read?
A: about 20%

Q: Which “production of ROS (DCF fluorescence)” value (SMSKCNR cells [3]) does the source give for `CC1CS(=O)(=O)CCN1N=Cc1c(Cl)c2cc(Br)ccc2oc1=O` (stereo not shown) [RKS-2-62] here?
A: increase in production of ROS

Q: And the lipid solubility [4]?
A: lipid soluble

Q: What about the “distribution between chloroform layer and aqueous layer” value ([4]; 10 μg/μL in chloroform, 1 mL distilled water added, vortexed) of the same compound?
A: remained solely in the chloroform layer and not the aqueous layer

Q: What about the solubility in chloroform ([4]; solution of 10 μg/μL) of the same compound?
A: shown to dissolve in chloroform

Q: What about the “growth inhibition compared with nifurtimox” value ([5]; 0-10 μg/mL) of the same compound?
A: inhibited the growth of both cell lines in a dose-dependent fashion and to a greater extent than nifurtimox

Q: What about the cytotoxicity at 10 µg/mL ([5]; Homo sapiens, 10 μg/mL, read-out: decrease of viability) of the same compound?
A: > 80%

Q: And the “growth inhibition compared with nifurtimox” value ([6]; 0-10 μg/mL)?
A: inhibited the growth of both cell lines in a dose-dependent fashion and to a greater extent than nifurtimox

Q: And the cytotoxicity at 10 µg/mL ([6]; 10 μg/mL, read-out: decrease of viability)?
A: > 80%

Q: And the “decrease of tumor weight compared to the control group” value (shortened to “decrease of tumor weight”) (SMSKCNR cells [7]; 50 mg/kg/day oral in food pellets)?
A: greater than 75%

Q: What about the “decrease of tumor weight” value (SMSKCNR cells [7]; 100 mg/kg/day oral in food pellets) of the same compound?
A: greater than 75%

Q: And the “decrease of tumor weight” value (SMSKCNR cells [7]; 150 mg/kg/day oral in food pellets)?
A: greater than 75%

Q: What about the “tolerability compared with nifurtimox” value (SMSKCNR cells [7]; mice, oral) of the same compound?
A: better tolerated in mice than nifurtimox

Q: What about the viability at 5 µg/mL [8] of the same compound?
A: 51.9%

Q: For `CC1CS(=O)(=O)CCN1/N=C\c1ccc([N+](=O)[O-])o1` (stereo not shown) [nifurtimox, reference compound], which viability at 5 µg/mL [8] is on record?
A: 88.4%
